The text below walks through data of patent US20230331655A1, “HYDROXYN[…] AND METHODS OF USE THEREOF” (UNIVERSITY OF MARYLAND, BALTIMORE, priority 2020, published 2023).

Entries after “also recorded” stand apart in the source; their conditions may differ.

Data set [1] in a line: oral bioavailability in mice. The following applies: mouse, in vivo.
Data set [2] deals with mice. Put plainly: antidepressant-relevant behavioral actions after oral administration. Format: in vivo, mouse.
Data set [3] relates to mice. Put plainly: overt adverse effects after oral administration. Format: in vivo, mouse.
The test system of data set [4] is Male C57BL/6J mice. In words: high-dose morphine conditioned-place preference in stress-naive mice. It is filed as in vivo, mouse. Particulars: single 10 mg/kg i.p., morphine 5 mg/kg. The text has this: (§1) Animals: Male C57BL/6J mice (8 weeks old, Jackson laboratories) were kept in a temperature and humidity-controlled environment and maintained in a 12:12 hr light/dark cycle (lights on at 7:00 AM). Mice were singly-housed for all the studies due to increased aggression following opioid administration and were randomly assigned to treatment groups.
(§2) Drugs: (2R,6R)-HNK hydrochloride was synthesized and characterized. Absolute and relative stereochemistry for (2R,6R)-HNK was confirmed by small molecule x-ray crystallography. For the intraperitoneal injections, drugs were dissolved in 0.9% saline and given in a volume of 5 ml/kg.
Morphine conditioned-place preference: The conditioned-place preference (CPP) apparatus consisted of a rectangular three-chambered box (40 cm length×30 cm width×35 cm height; Stoelting Co., Wood Dale, IL, USA) comprised of two equal sized end-chambers (20 cm×18 cm×35 cm) and a central chamber (20 cm×10 cm×35 cm). […] The CPP protocol consisted of a pre-conditioning phase, eight conditioning sessions and a post-conditioning test. […]
Conditioning phase (Days 3-6): During the morning sessions of the conditioning phase, saline was administered and mice were placed in their non-opioid assigned compartment for 40 min. […] Time spent in each compartment was measured during both pre- and post-conditioning sessions using TopScan v2.0 (CleverSys, Inc, VA, USA).

Data set [5] has as its system Male C57BL/6J mice. Put plainly: naloxone-precipitated morphine withdrawal conditioned-place aversion. Particulars: 10 mg/kg i.p. 10 min before naloxone 1 mg/kg; morphine 10 mg/kg. It is filed as in vivo, mouse.
Excerpt: as §1, §2
Precipitated morphine place aversion: The conditioned-place aversion (CPA) protocol was performed in a rectangular three-chambered box (40 cm length×30 cm width×35 cm height; Stoelting Co., Wood Dale, IL, USA) comprised of two equal sized end-chambers (20 cm×18 cm×35 cm) and a central chamber (20 cm×10 cm×35 cm). […] The CPA protocol consisted of a pre-conditioning phase, four saline/morphine administration days in their home cages, a conditioning phase following morphine precipitated withdrawal in the CPA apparatus and a post-conditioning test. […] Time spent in each compartment was measured during both pre- and post-conditioning sessions using TopScan v2.0 (CleverSys, Inc, VA, USA).

The subject of data set [6] is Male C57BL/6J mice. Put plainly: sub-threshold social defeat stress in mice previously exposed to morphine. It is filed as in vivo, mouse.
Excerpt: as §1
Drugs: (2R,6R)-HNK hydrochloride was synthesized and characterized. Absolute and relative stereochemistry for (2R,6R)-HNK was confirmed by small molecule x-ray crystallography. For the intraperitoneal injections, drugs were dissolved in 0.9% saline and given in a volume of 5 ml/kg. […]
Social interaction test: Following the sub-threshold social defeat stress, on day 16, test mice were screened for susceptibility in a social interaction/avoidance choice test. […] The time spent interacting (nose within close proximity of the cage) with the “stranger” mouse versus the empty cage was analyzed using TopScan video tracking software (CleverSys, Reston, Virginia). % Social Interaction was calculated as the time spent interacting with stranger divided by the total time interacting with the end-chamber cages×100.
Sucrose preference: Following the social interaction test, mice were assessed for sucrose preference in their home cages. […]

As a reminder, the bioavailability is dose-corrected exposure relative to a reference, in per cent. Read a low bioavailability as poor availability. Turning to `N[C@@]1(c2ccccc2Cl)CCC[C@@H](O)C1=O` [(2R,6R)-HNK, (2R,6R)-hydroxynorketamine], in data set [1], the bioavailability is ~50%. The “oral doses exerting antidepressant-relevant behavioral actions” value in data set [2] lay within 15 to 50 mg/kg. Besides, in data set [3], the “fold higher than doses required for antidepressant-relevant effects (dose without overt adverse effects)” value was “at least 9 fold” and the “oral doses without overt adverse effects” value is on record as “up to 450 mg/kg”. In addition, in data set [4], the “development of high-dose morphine CPP” value is listed as “did not prevent”. For the same compound, the “naloxone-induced conditioned-place aversion in morphine-dependent mice” value in data set [5] was “prevents conditioned-place aversion; also recorded: completely prevented”. Besides, in data set [6] (10 mg/kg i.p. 2 hours after sub-threshold social defeat, mice previously exposed to morphine 10 mg/kg), the “stress susceptibility phenotypes / emotional deficits (social interaction, sucrose preference, female urine sniffing, untorn nestlet weight)” value was “reverses emotional deficits; also recorded: reversed stress susceptibility phenotypes”. Also, the “reinstatement of maladaptive behaviors after brief re-exposure to stress” value in data set [6] (10 mg/kg i.p. after the first defeats, 1 min re-exposure) is on record as “prevents reinstatement”.
